Experimental data from ChEMBL document CHEMBL1201862, “PubChem BioAssay data set” (2004).
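In this assay, cells in 96-well plates receive the compound at five concentrations for 48 hours. Endpoints are linearly interpolated between the surrounding concentrations. Here, GI50 denotes the concentration required for 50% inhibition of growth.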 Calls of active or inactive are those of the source. Cut-off read from the data, not from the text of the source: active = GI50 up to about 1.1 µM and inactive = higher.

Assays:
Assay in all cases: NCI-60 cell line screen, 48 h
COLO 205 = test system: COLO 205
Hs-578T = test system: Hs-578T
SN12C = test system: SN12C
Malme-3M = test system: Malme-3M
MDA-MB-231 = test system: MDA-MB-231
NCI-H522 = test system: NCI-H522
HOP-92 = test system: HOP-92
UO-31 = test system: UO-31
NCI/ADR-RES = test system: NCI/ADR-RES
HT-29 = test system: HT-29
UACC-257 = test system: UACC-257
SK-OV-3 = test system: SK-OV-3
SF-295 = test system: SF-295
HOP-62 = test system: HOP-62
LOX IMVI = test system: LOX IMVI
SK-MEL-2 = test system: SK-MEL-2
CAKI-1 = test system: CAKI-1
SW-620 = test system: SW-620
HCC 2998 = test system: HCC 2998
HCT-116 = test system: HCT-116
UACC-62 = test system: UACC-62
MDA-MB-435 = test system: MDA-MB-435
SNB-19 = test system: SNB-19
OVCAR-3 = test system: OVCAR-3
OVCAR-4 = test system: OVCAR-4
RXF 393 = test system: RXF 393
HCT-15 = test system: HCT-15
MDA-N = test system: MDA-N
SK-MEL-5 = test system: SK-MEL-5
T47D = test system: T47D
A549 = test system: A549
MCF7 = test system: MCF7
IGROV-1 = test system: IGROV-1
MOLT-4 = test system: MOLT-4
SR = test system: SR
SF-539 = test system: SF-539
EKVX = test system: EKVX
SNB-75 = test system: SNB-75
HL-60 = test system: HL-60
TK-10 = test system: TK-10
K562 = test system: K562
NCI-H23 = test system: NCI-H23
BT-549 = test system: BT-549
786-0 = test system: 786-0
OVCAR-8 = test system: OVCAR-8
RPMI-8226 = test system: RPMI-8226
U-251 = test system: U-251
PC-3 = test system: PC-3
CCRF-CEM = test system: CCRF-CEM
NCI-H226 = test system: NCI-H226
A498 = test system: A498
M14 = test system: M14
ACHN = test system: ACHN
KM12 = test system: KM12
NCI-H460 = test system: NCI-H460
OVCAR-5 = test system: OVCAR-5
DU-145 = test system: DU-145
SK-MEL-28 = test system: SK-MEL-28
SF-268 = test system: SF-268

## CN(C)CCC(=O)[C@@]1(O)CC[C@H]2[C@@H]3CC=C4C[C@@H](O)CC[C@]4(C)[C@H]3CC[C@@]21C
COLO 205
  GI50: 18.4 µM (inactive)
Hs-578T
  GI50: 20.7 µM (inactive)
SN12C
  GI50: 16.9 µM (inactive)
Malme-3M
  GI50: 15.3 µM (inactive)
MDA-MB-231
  GI50: 18.5 µM (inactive)
NCI-H522
  GI50: 11.9 µM (inactive)
HOP-92
  GI50: 20.9 µM (inactive)
UO-31
  GI50: 15.6 µM (inactive)
NCI/ADR-RES
  GI50: 26.7 µM (inactive)
HT-29
  GI50: 18.9 µM (inactive)
UACC-257
  GI50: 13.3 µM (inactive)
SK-OV-3
  GI50: 29.8 µM (inactive)
SF-295
  GI50: 24.9 µM (inactive)
HOP-62
  GI50: 14.2 µM (inactive)
LOX IMVI
  GI50: 13.7 µM (inactive)
SK-MEL-2
  GI50: 15.9 µM (inactive)
CAKI-1
  GI50: 17.5 µM (inactive)
SW-620
  GI50: 17.9 µM (inactive)
HCC 2998
  GI50: 21.3 µM (inactive)
HCT-116
  GI50: 18 µM (inactive)
UACC-62
  GI50: 16.7 µM (inactive)
MDA-MB-435
  GI50: 18.2 µM (inactive)
SNB-19
  GI50: 25.6 µM (inactive)
OVCAR-3
  GI50: 9.02 µM (inactive)
OVCAR-4
  GI50: 33.4 µM (inactive)
RXF 393
  GI50: 9.2 µM (inactive)
HCT-15
  GI50: 20.1 µM
MDA-N
  GI50: 17.7 µM (inactive)
SK-MEL-5
  GI50: 29.9 µM (inactive)
T47D
  GI50: 4.11 µM (inactive)
A549
  GI50: 37.1 µM (inactive)
MCF7
  GI50: 4.38 µM (inactive)
IGROV-1
  GI50: 17.8 µM (inactive)
MOLT-4
  GI50: 13.9 µM (inactive)
SR
  GI50: 12.6 µM (inactive)
SF-539
  GI50: 2.6 µM (inactive)
EKVX
  GI50: 20.7 µM (inactive)
SNB-75
  GI50: 15.2 µM (inactive)
HL-60
  GI50: 17.4 µM (inactive)
TK-10
  GI50: 2.1 µM (inactive)
K562
  GI50: 18.2 µM (inactive)
NCI-H23
  GI50: 23.6 µM (inactive)
BT-549
  GI50: 17.9 µM (inactive)
786-0
  GI50: 3.68 µM (inactive)
OVCAR-8
  GI50: 20.2 µM (inactive)
RPMI-8226
  GI50: 1.58 µM (inactive)
U-251
  GI50: 17.3 µM (inactive)
PC-3
  GI50: 13.4 µM (inactive)
CCRF-CEM
  GI50: 5.25 µM (inactive)
NCI-H226
  GI50: 62.8 µM (inactive)
A498
  GI50: 16.1 µM (inactive)
M14
  GI50: 18.2 µM (inactive)
ACHN
  GI50: 16.1 µM (inactive)
KM12
  GI50: 15.1 µM (inactive)
NCI-H460
  GI50: 15.4 µM (inactive)
OVCAR-5
  GI50: > 61.5 µM (inactive)
DU-145
  GI50: 6.65 µM (inactive)
SK-MEL-28
  GI50: 17.2 µM (inactive)
SF-268
  GI50: 16.9 µM (inactive)

## CCc1nc(N)nc(N)c1-c1ccc(NC)c([N+](=O)[O-])c1
COLO 205
  GI50: 4.84 µM (inactive)
Hs-578T
  GI50: 23.6 µM (inactive)
SN12C
  GI50: 0.91 µM (active)
Malme-3M
  GI50: 24.8 µM (inactive)
MDA-MB-231
  GI50: 27.2 µM (inactive)
NCI-H522
  GI50: 1.88 µM (inactive)
HOP-92
  GI50: 8.81 µM (inactive)
UO-31
  GI50: 7.93 µM (inactive)
NCI/ADR-RES
  GI50: 1.2 µM (inactive)
HT-29
  GI50: 0.44 µM (active)
UACC-257
  GI50: 18 µM (inactive)
SK-OV-3
  GI50: 28.7 µM (inactive)
SF-295
  GI50: 0.753 µM (active)
HOP-62
  GI50: 1.79 µM (inactive)
LOX IMVI
  GI50: 0.449 µM (active)
SK-MEL-2
  GI50: 21.2 µM (inactive)
CAKI-1
  GI50: 0.767 µM (active)
SW-620
  GI50: 0.481 µM (active)
HCC 2998
  GI50: 3.56 µM (inactive)
HCT-116
  GI50: 0.219 µM (active)
UACC-62
  GI50: 0.531 µM (active)
MDA-MB-435
  GI50: 0.586 µM (active)
SNB-19
  GI50: 9.08 µM (inactive)
OVCAR-3
  GI50: 10.7 µM (inactive)
OVCAR-4
  GI50: 15.5 µM (inactive)
RXF 393
  GI50: 16 µM (inactive)
HCT-15
  GI50: 0.398 µM
MDA-N
  GI50: 0.173 µM (active)
SK-MEL-5
  GI50: 0.63 µM (active)
T47D
  GI50: 21.4 µM (inactive)
A549
  GI50: 0.192 µM (active)
MCF7
  GI50: 2.48 µM (inactive)
IGROV-1
  GI50: 0.904 µM (active)
MOLT-4
  GI50: 1 µM (active)
SR
  GI50: 0.327 µM (active)
SF-539
  GI50: 1.47 µM (inactive)
EKVX
  GI50: 8.41 µM (inactive)
SNB-75
  GI50: 10.8 µM (inactive)
HL-60
  GI50: 0.308 µM (active)
TK-10
  GI50: 28.2 µM (inactive)
K562
  GI50: 0.0631 µM (active)
NCI-H23
  GI50: 0.944 µM (active)
BT-549
  GI50: 26.1 µM (inactive)
786-0
  GI50: 0.558 µM (active)
OVCAR-8
  GI50: 0.662 µM (active)
RPMI-8226
  GI50: 3.72 µM (inactive)
U-251
  GI50: 0.631 µM (active)
PC-3
  GI50: 0.804 µM (active)
CCRF-CEM
  GI50: 0.531 µM (active)
NCI-H226
  GI50: 28.6 µM (inactive)
A498
  GI50: 2.43 µM (inactive)
M14
  GI50: 0.959 µM (active)
ACHN
  GI50: 0.594 µM (active)
KM12
  GI50: 2.76 µM (inactive)
NCI-H460
  GI50: 0.15 µM (active)
OVCAR-5
  GI50: 17.1 µM (inactive)
DU-145
  GI50: 2.14 µM (inactive)
SK-MEL-28
  GI50: 43.7 µM (inactive)
SF-268
  GI50: 0.815 µM (active)
